Source: ChEMBL document CHEMBL1144445, “Design, synthesis and antiviral activity of novel 4,5-disubstituted 7-(beta-D-ribofuranosyl)pyrrolo[2,3-d][1,2,3]triazines and the novel 3-amino-5-methyl-1-(beta-D-ribofuranosyl)- and 3-amino-5-methyl-1-(2-deoxy-beta-D-ribofuranosyl)-1,5-dihydro-1,4,5,6,7,8-hexaazaacenaphthylene as analogues of …” (J Med Chem, 2005)

What was measured:
Human alphaherpesvirus 1 = experiment: Inhibitory concentration against human herpes simplex virus type 1 using ELISA test; type: functional, organism-based
HFF = experiment: Visual cytotoxicity was determined in uninfected HFF cells using plaque assay; type: functional, cell-based; details: Homo sapiens
KB = experiment: Inhibitory concentration was determined for KB cell growth; type: functional, cell-based; details: Homo sapiens
Human betaherpesvirus 5 [1] = experiment: Inhibitory concentration against human cytomegalovirus using plaque assay; type: functional, organism-based
[2] = system: Human immunodeficiency virus 1; experiment: Inhibitory concentration against human immunodeficiency virus type 1; type: functional, organism-based
Human betaherpesvirus 5 [3] = experiment: Inhibitory concentration against human cytomegalovirus using yield-reduction assay; type: functional

| SMILES | IC50 (Human alphaherpesvirus 1) [µM] | IC50 (HFF) [µM] | IC50 (KB) [µM] | IC50 (Human betaherpesvirus 5 [1]) [µM] | IC50 [2] [µM] | IC90 (Human betaherpesvirus 5 [3]) [µM] |
| --- | --- | --- | --- | --- | --- | --- |
| Cc1ccc(C(=O)OC[C@H]2O[C@@H](n3cc(C(N)=O)c(C(N)=O)c3N)C[C@@H]2OC(=O)c2ccc(C)cc2)cc1 | > 100 | 32 | 100 | 12 |  |  |
| N#C/N=C(\N)c1cn([C@@H]2O[C@H](CO)[C@@H](O)[C@H]2O)c2nnnc(N)c12 | > 100 | > 100 | 5 | > 100 |  |  |
| NC(=S)c1cn([C@@H]2O[C@H](CO)[C@@H](O)[C@H]2O)c2nnnc(N)c12 | 40 | 32 | 2 | 8.5 |  |  |
| CCOC(=O)c1cn([C@@H]2O[C@H](CO)[C@@H](O)[C@H]2O)c2nnnc(N)c12 | > 100 | > 100 | 80 | > 100 |  |  |
| NC(=O)c1cn([C@@H]2O[C@H](COC(=O)c3ccccc3)[C@@H](OC(=O)c3ccccc3)[C@H]2OC(=O)c2ccccc2)c(N)c1C(N)=O | > 10 | > 10 | > 10 | > 10 |  |  |
| Cc1ccc(C(=O)OC[C@H]2O[C@@H](n3cc(C(N)=O)c(C(N)=O)c3[N+](=O)[O-])C[C@@H]2OC(=O)c2ccc(C)cc2)cc1 | > 100 | 32 |  | 32 |  |  |
| NC(=O)c1cn([C@@H]2O[C@H](COC(=O)c3ccccc3)[C@@H](OC(=O)c3ccccc3)[C@H]2OC(=O)c2ccccc2)c2nnnc(O)c12 | > 10 | > 10 | > 10 | > 10 |  |  |
| COC(=N)c1cn([C@@H]2O[C@H](CO)[C@@H](O)[C@H]2O)c2nnnc(N)c12 | > 100 | 21 | 20 | 32 |  |  |
| CN1N=C(N)c2cn([C@@H]3O[C@H](CO)[C@@H](O)[C@H]3O)c3nnnc1c23 | > 100 | 10 | 2.5 | 14 | 0.6 |  |
| CN(N)c1nnnc2c1c(C#N)cn2[C@@H]1O[C@H](COC(=O)c2ccccc2)[C@@H](OC(=O)c2ccccc2)[C@H]1OC(=O)c1ccccc1 | > 10 | > 10 | > 10 | > 10 |  |  |
| N=C(NN)c1cn([C@@H]2O[C@H](CO)[C@@H](O)[C@H]2O)c2nnnc(N)c12 | 80 | 32 | 3 | 32 |  | 1 |
| N/C(=N\O)c1cn([C@@H]2O[C@H](CO)[C@@H](O)[C@H]2O)c2nnnc(N)c12 | 0.9 | 6.6 | 1.5 | < 2 |  |  |
| NC(=O)c1cn([C@@H]2O[C@H](CO)[C@@H](O)[C@H]2O)c2nnnc(N)c12 | 2.5 | 0.3 | 0.08 | 0.3 |  | 0.4 |
| N#Cc1cn([C@@H]2O[C@H](COC(=O)c3ccccc3)[C@@H](OC(=O)c3ccccc3)[C@H]2OC(=O)c2ccccc2)c2nnnc(-n3cncn3)c12 | > 10 | > 10 | > 10 | > 10 |  |  |
